Read-outs that look alike come from different tables or passages of the source.

For one assay, the target named is GalfNeoLect (Streptomyces sp. JHA19, UniProt A0A0K2SRV3, E464Q). Kind of assay: Competitive inhibition assay of GalfNGP binding to immobilised GalfNeoLect. Also noted: species or system Streptomyces sp. strain JHA19. The following applies: for IC50: biotinylated GalfNGP (2 μg/mL) as tracer, read-out: IC50 of inhibitors towards GalfNeoLect; for inhibition of GalfNGP binding to immobilised GalfNeoLect: result in words. The method, then: In the competitive inhibition assay, we investigated the ability of selected pNP, azido, or thyoaryl monosaccharide substrates (Galf-N3, Galf-thioaryl, pNP-β-D-Galf, pNP-β-D-Galp, pNP-α-L-Araf, pNP-β-D-Ribf) (Figure 5) for their ability to inhibit the binding of GalfNGP to immobilised GalfNeoLect.
(§1) The interaction profiles of each compound were determined through an indirect method, based on the inhibition by the compound of the interaction between a specific coupled lectin–glycan (a neoglycoprotein labelled with biotin and used as a tracer). Briefly, a mix of biotinylated GalfNGP (fixed concentration) and the corresponding compounds (in a range of concentrations), prepared in PBS supplemented with 1 mM CaCl2 and 0.5 mM MgCl2, are deposed in each well (50 μL each) in triplicate and incubated for 2 h at room temperature. After washing with PBS buffer, the conjugate streptavidin-DTAF was added (50 μL) and incubated for 30 min more. The plate was washed again with PBS. Finally, 100 μL of PBS was added for the readout of the fluorescent plate, performed with a fluorescence reader (λex = 485 nm, λem = 530 nm, Fluostar OPTIMA, BMG LABTECH, France). The signal intensity was inversely correlated with the capacity of the compound to be recognised by the lectin and expressed as inhibition percentage with comparison with the corresponding biotinylated GalfNGP alone.
Aspergillus brasiliensis (ATCC 16404) culture was inoculated on Sabouraud agar plates and incubated at 37 °C for 4 days until the formation of a black mycelium mat, which contains spores. Fresh spores were harvested with a sterile plastic inoculation loop by rubbing the black mycelium mat and dispersed in physiological serum solution (0.8% NaCl, 10 mL). The spore solution was resuspended well by using a vortex to prevent aggregation and was calibrated using a Malassez counting chamber to 5.10^6 spores/mL. Spores’ solutions (5.10^6 spores/mL) were used directly in inhibition assays with GalfNeoLect, following the same protocol describe above (Section 4.8).

In assay [1] the target is T1, wild-type Galf-ase (Streptomyces sp. JHA19, UniProt A0A0K2SRV3). Kind of assay: Competitive inhibition assay of GalfNGP binding to wild-type Galf-ase. Also noted: species or system Streptomyces sp. strain JHA19. The following applies: biotinylated GalfNGP (2 μg/mL) as tracer; read-out: IC50 of inhibitors towards wild-type Galf-ase. The method, then: Indeed, Table 6 summarises the 50% inhibitory concentrations (IC50) obtained from all compounds studied.
as §1
Target sequence in this assay (A0A0K2SRV3 45-786 limits assumed): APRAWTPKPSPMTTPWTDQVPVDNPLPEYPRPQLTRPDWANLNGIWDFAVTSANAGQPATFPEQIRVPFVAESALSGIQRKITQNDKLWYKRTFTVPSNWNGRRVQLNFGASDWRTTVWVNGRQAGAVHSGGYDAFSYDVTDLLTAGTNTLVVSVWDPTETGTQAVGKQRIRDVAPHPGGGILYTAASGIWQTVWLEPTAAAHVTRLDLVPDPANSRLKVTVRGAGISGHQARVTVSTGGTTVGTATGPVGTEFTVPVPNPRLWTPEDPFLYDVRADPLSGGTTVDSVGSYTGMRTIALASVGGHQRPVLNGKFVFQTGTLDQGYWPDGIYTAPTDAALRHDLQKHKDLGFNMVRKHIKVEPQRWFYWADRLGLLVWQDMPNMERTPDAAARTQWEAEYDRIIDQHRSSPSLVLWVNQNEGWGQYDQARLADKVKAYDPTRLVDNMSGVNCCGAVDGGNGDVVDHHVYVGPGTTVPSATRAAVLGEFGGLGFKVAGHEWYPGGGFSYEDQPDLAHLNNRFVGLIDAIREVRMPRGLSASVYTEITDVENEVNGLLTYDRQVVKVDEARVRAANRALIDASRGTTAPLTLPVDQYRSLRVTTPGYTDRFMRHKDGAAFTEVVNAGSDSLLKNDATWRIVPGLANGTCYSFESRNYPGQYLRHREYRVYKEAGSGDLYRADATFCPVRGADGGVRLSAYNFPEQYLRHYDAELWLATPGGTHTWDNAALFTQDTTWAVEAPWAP

For assay [2], the system named is T2, Galf-ase (wild-type Galf-ase; E464).
T2 construct: pET-28a(+) construct, expressed in E. coli Rosetta (DE3), Ni-NTA purified
Kind of assay: Absorbance at 405 nm of p-nitrophenol released by hydrolysis of pNP-β-D-Galf (0.01-5 mM), citrate/phosphate buffer pH 4.5, 37 °C, 20 min, stopped with Na2CO3. The class given is biochemical. The settings on record: n = 3; cited from earlier work. As for the experimental part: In analysing the hydrolitic activity and the hydrolysis rate-limiting steps of the three Galf-ase mutant variants E464S, E464C, and E464Q, the Michaelis–Menten kinetic parameters were determined under the similar conditions used for wild-type enzyme. […] Altogether, the obtained values are in the same order of magnitude. […] The significant decrease in catalytic efficiency by a factor of 3000–1400 times for E464S and E464C mutants, respectively, and 56 times lower for E464Q mutant is observed. These kinetic observations are in accordance with the other data obtained in similar assays used for the identification of the catalytic residues in retaining and inverting several GHs. The Galf-ase mutant variant E464Q featured only a minor change in the KM value, 166 µM compared to 250 µM, of the wild-type Galf-ase and, given the advantage that, contrary to other mutant variants, it was purified in sufficient quantities (0.3 mg/L), it was selected as a promising candidate to be tested as a novel Galf-binding lectin (GalfNeoLect). […]
Kinetic parameters were determined with pNP-β-D-Galf as a substrate in different concentration ranges (0.01–5 mM). […] All the reactions were assayed in triplicate and absorbance values were corrected for the spontaneous hydrolysis of the substrate. The kinetic parameters (KM, Vm, kcat) were calculated using GraphPad Prism 5 software (GraphPad Software, San Diego, CA, USA). […]

A further assay has as its system T3, E464C.
T3 construct: pET-28a(+) construct, expressed in E. coli Rosetta (DE3), Ni-NTA purified
Described as above. It counts as biochemical. The settings on record: n = 3. The method, then:
(§2) In analysing the hydrolitic activity and the hydrolysis rate-limiting steps of the three Galf-ase mutant variants E464S, E464C, and E464Q, the Michaelis–Menten kinetic parameters were determined under the similar conditions used for wild-type enzyme. […] Altogether, the obtained values are in the same order of magnitude. […] The significant decrease in catalytic efficiency by a factor of 3000–1400 times for E464S and E464C mutants, respectively, and 56 times lower for E464Q mutant is observed. These kinetic observations are in accordance with the other data obtained in similar assays used for the identification of the catalytic residues in retaining and inverting several GHs. The Galf-ase mutant variant E464Q featured only a minor change in the KM value, 166 µM compared to 250 µM, of the wild-type Galf-ase and, given the advantage that, contrary to other mutant variants, it was purified in sufficient quantities (0.3 mg/L), it was selected as a promising candidate to be tested as a novel Galf-binding lectin (GalfNeoLect). Further in the article, the E464Q mutant variant is addressed as GalfNeoLect.
(§3) Kinetic parameters were determined with pNP-β-D-Galf as a substrate in different concentration ranges (0.01–5 mM). The reaction (200 μL), containing buffer (20 μL; 0.1 M citric acid/0.2 M Na2HPO4 pH 4.5) and water, if required, was started by addition of the enzyme (2 μL; 0.13 mg/mL) and, after 20 min of incubation at 37 °C (water bath), the reaction was terminated (100 μL; 1 M Na2CO3) and absorbance (405 nm) of released pNP was measured. All the reactions were assayed in triplicate and absorbance values were corrected for the spontaneous hydrolysis of the substrate. The kinetic parameters (KM, Vm, kcat) were calculated using GraphPad Prism 5 software (GraphPad Software, San Diego, CA, USA).
(§4) Figure S4. Michaelis–-Menten plot of pNP-β-D-Galf hydrolysis reaction catalysed by Galf-ase E464S, E464C, and
(§5) E464Q mutant variants. Mean values and SD error bars were calculated from three independent experiments
(§6) (*except E464C) and from a single protein preparation. […]

Another assay deals with T4, E464Q (GalfNeoLect).
T4 construct: pET-28a(+) construct, expressed in E. coli Rosetta (DE3), Ni-NTA purified
The description is as above. The class given is biochemical. The settings on record: n = 3. The method, then:
as §2, §3, §4, §5, §6

The next assay deals with T5, E464S.
T5 construct: pET-28a(+) construct, expressed in E. coli Rosetta (DE3), Ni-NTA purified
Described as above. It counts as biochemical. The settings on record: n = 3. The method, then: as §2, §3, §4, §5, §6

Assay [3] concerns the target T1, wild-type Galf-ase. The experiment in a line: Direct binding assay (ELLA) of biotinylated neoglycoproteins to immobilised wild-type Galf-ase. Also noted: species or system Streptomyces sp. strain JHA19. The settings on record: read-out: BC50 (concentration to obtain 50% GalfNGP binding). The text has this: To study and evaluate the binding interactions of Galf-ase E464Q mutant variant, as novel Galf-binding lectin (GalfNeoLect), we synthetised novel neoglycoproteins (NGPs) to serve as the Galf-bearing scaffold. Bovine serum albumin (BSA), a well-known, naturally unglycosylated protein that has up to 60 primary amino functional groups available for click-conjugation chemistry, has been functionalised with Galf motifs. Galf-N3, involved in the corresponding click reaction with propargyl functionalised BSA, was obtained from the corresponding per-O-acetyl galactofuranose using TMSN3 as a source of azide and TMSOTf as the Lewis acid (see ESI for chemical synthesis). After acetyl cleavage, the resulting/expected Galf-conjugated BSA neoglycoprotein (GalfNGP) synthesis has been first characterised for its functionality by direct binding assay with human Intelectin-1 (hIntL-1), wild-type Galf-ase, and GalfNeoLect. As hIntL-1 has been reported to bind furanose residues (five-membered-ring saccharide isomers), including a β-Galf–containing disaccharide, it served as a positive control for the evaluation of newly synthetised GalfNGP. […]
The assays were performed according to GlycoDiag’s protocol, already described in the literature. […] Finally, 100 μL of PBS was added for reading the plate using a fluorescence reader (λex = 485 nm, λem = 530 nm, Fluostar OPTIMA, BMG LABTECH, France). […]

Sequence of GalfNeoLect (A0A0K2SRV3 45-786 E464Q limits assumed): as the sequence (A0A0K2SRV3 45-786 limits assumed) above, with E420Q counted along it

One may read the IC50 as the concentration that inhibits the measured activity by half. Turning to `[N-]=[N+]=N[C@@H]1O[C@@H]([C@H](O)CO)[C@H](O)[C@H]1O` [Galf-N3, β-D-galactofuranosyl azide], the IC50 was determined as 1390 µM at GalfNeoLect and 590 µM at wild-type Galf-ase [1].

As to `Cc1ccc(S[C@@H]2O[C@@H]([C@H](O)CO)[C@H](O)[C@H]2O)cc1` [Galf-thioaryl], the IC50 was found to be 150 µM at GalfNeoLect (listed as Galf-Thioaryl), 180 µM on GalfNeoLect and 180 µM at wild-type Galf-ase [1].

Regarding `O=[N+]([O-])c1ccc(O[C@@H]2O[C@@H](CO)[C@H](O)[C@H]2O)cc1` [pNP-α-L-Araf], on GalfNeoLect, the “inhibition of GalfNGP binding to immobilised GalfNeoLect” value (“inhibition of GalfNGP binding” for short) is listed as “no inhibition”.

What is called Km is the concentration of substrate that gives half-maximal velocity. Turning to `O=[N+]([O-])c1ccc(O[C@@H]2O[C@@H]([C@H](O)CO)[C@H](O)[C@H]2O)cc1` [pNP-β-D-Galf, p-nitrophenyl β-D-galactofuranoside], the Km in assay [2] is 250 µM; in the assay on E464C, 170 µM; in the assay with E464Q (GalfNeoLect), 166 µM; with E464S it was 36 µM.

`O=[N+]([O-])c1ccc(O[C@@H]2O[C@@H]([C@H](O)CO)[C@H](O)[C@H]2O)cc1` [pNP-β-D-Galf]: the figures for the half-maximal inhibitory concentration (IC50) on GalfNeoLect and at wild-type Galf-ase [1] were 1140 µM and 560 µM, respectively.

On to `O=[N+]([O-])c1ccc(O[C@@H]2O[C@H](CO)[C@H](O)[C@H](O)[C@H]2O)cc1` [pNP-β-D-Galp], for which the “inhibition of GalfNGP binding” value on GalfNeoLect is recorded as “no inhibition”.

Consider `O=[N+]([O-])c1ccc(OC2OC(CO)C(O)C2O)cc1` [pNP-β-D-Ribf], for which the “inhibition of GalfNGP binding” value on GalfNeoLect was “no inhibition”.

For the molecule “GalfNGP: Galf-conjugated bovine serum albumin neoglycoprotein carrying multivalent Galf units”, the EC50 with wild-type Galf-ase [3] was 0.024 µM.

(Values after publication PMC11084152, “Galf-Specific Neolectins: Towards Promising Diagnostic Tools” (International Journal of Molecular Sciences, 2024).)
